Data on 2 compounds can be found in patent US8962529B2, “Substituted picolinic acids, salts and acid derivatives thereof, and use thereof as herbicides” (Bayer Cropscience AG, priority 2010, dated 2015).

Common to all, as to type: in vivo
In one assay the test system is ABUTH. Description: Post-emergence herbicidal action against weed plants (greenhouse pot test). The note with it: one-leaf stage, application rate 320 g/ha, scored visually after about 3 weeks vs untreated controls, 100% = plants have died. The protocol: (§1) Seeds of mono- and dicotyledonous weed and crop plants are set out in wood fiber pots in sandy loam soil, covered with soil and cultivated in a greenhouse under good growth conditions. 2 to 3 weeks after sowing, the trial plants are treated at the one-leaf stage. The inventive compounds formulated in the form of wettable powders (WP) or as emulsion concentrates (EC) are then sprayed onto the green plant parts as an aqueous suspension or emulsion with a water application rate of 600 to 800 l/ha (converted) with addition of 0.2% wetting agent. After the trial plants have stood in the greenhouse under optimal growth conditions for about 3 weeks, the action of the preparations is scored visually in comparison to untreated controls (herbicidal action in percent (%): 100% action=plants have died, 0% action=like control plants).

Assay [1] relates to Veronica persica. Described as above. Particulars: one-leaf stage, application rate 320 g/ha, scored visually after about 3 weeks vs untreated controls, 100% = plants have died. The protocol: as §1
Assay [2] relates to Veronica persica. Description: Pre-emergence herbicidal action against weed plants (greenhouse pot test). Particulars: application rate 320 g/ha, scored visually after 3 weeks vs untreated controls, 100% = plants have died, 0% = like control plants. The text has this:
(§2) Seeds of mono- and dicotyledonous weed and crop plants are set out in wood fiber pots in sandy loam soil and covered with soil. The inventive compounds formulated in the form of wettable powders (WP) or as emulsion concentrates (EC) are then applied to the surface of the covering earth as an aqueous suspension or emulsion at a water application rate of 600 to 800 l/ha (converted) with addition of 0.2% wetting agent. After the treatment, the pots are placed in a greenhouse and kept under good growth conditions for the test plants. The damage to the test plants is scored visually after an experiment time of 3 weeks in comparison to untreated controls (herbicidal action in percent (%): 100% action=plants have died, 0% action=like control plants).

A further assay has as its system Ipomoea purpurea. Description: Post-emergence herbicidal action against weed plants (greenhouse pot test). The note with it: one-leaf stage, application rate 320 g/ha, scored visually after about 3 weeks vs untreated controls, 100% = plants have died. The protocol: as §1
The next assay relates to Amaranthus retroflexus. The assay is described as follows: Pre-emergence herbicidal action against weed plants (greenhouse pot test). Particulars: application rate 320 g/ha, scored visually after 3 weeks vs untreated controls, 100% = plants have died, 0% = like control plants.
Excerpt: as §2

On to `COC(=O)c1nc(-c2ccc(Cl)c(C3CO3)c2F)cc(N)c1Cl` (centres unmarked) [Example 9-618], for which the “herbicidal action in percent, ABUTH” value in the assay on ABUTH was determined as 80%. Besides, the “herbicidal action in percent, VERPE” value in the assay on Veronica persica [1] came out at 90%; in the assay on Veronica persica [2], 100%.

As to `COC(=O)c1nc(-c2ccc(Cl)c(C3COC(C)(C)O3)c2F)cc(N)c1Cl` (centres unmarked) [Example 9-842], the “herbicidal action in percent, ABUTH” value in the assay with ABUTH amounted to 80%. Further, the “herbicidal action in percent, PHBPU” value in the assay with Ipomoea purpurea turned out to be 90%. The “herbicidal action in percent, VERPE” value in the assay on Veronica persica [1] and with Veronica persica [2] was 100% throughout. The “herbicidal action in percent, AMARE” value with Amaranthus retroflexus worked out at 90%.
